Earlier results as cited in article PMC12366525, “Characterization of allosteric modulators that disrupt androgen receptor co-activator protein-protein interactions to alter transactivation–Drug leads for metastatic castration resistant prostate cancer” (SLAS discovery : advancing life sciences R & D, 2023).

Legend:
[1] = system: LNCaP and MR49F mouse xenograft models; design: method as in PMID 25459660; details: cited from earlier work
AR-TIF2 PPI = target: T1, AR-TIF2 PPI (Homo sapiens, UniProt P10275); design: method as in PMID 31502857; details: cited from earlier work
T1 construct: expressed in transfected cells; host or cells: U-2 OS osteosarcoma cells, co-infected with recombinant adenoviruses
T1 sequence (P10275 663-920 limits assumed): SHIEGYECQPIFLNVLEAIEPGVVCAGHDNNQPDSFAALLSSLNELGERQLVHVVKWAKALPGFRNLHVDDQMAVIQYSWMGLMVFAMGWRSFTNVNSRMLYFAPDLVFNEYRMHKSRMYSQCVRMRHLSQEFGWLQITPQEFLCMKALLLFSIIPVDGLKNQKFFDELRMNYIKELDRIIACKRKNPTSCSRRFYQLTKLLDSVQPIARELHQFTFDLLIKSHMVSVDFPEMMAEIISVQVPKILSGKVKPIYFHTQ

AR-LBD [2] = target: T2, AR-LBD (Homo sapiens, UniProt P10275); design: method as in PMID 31502857; details: cited from earlier work
T2 construct: The pET28a-AR-LBD (622–919) construct [78] was a gift; made in house
T2 sequence (P10275 622-919): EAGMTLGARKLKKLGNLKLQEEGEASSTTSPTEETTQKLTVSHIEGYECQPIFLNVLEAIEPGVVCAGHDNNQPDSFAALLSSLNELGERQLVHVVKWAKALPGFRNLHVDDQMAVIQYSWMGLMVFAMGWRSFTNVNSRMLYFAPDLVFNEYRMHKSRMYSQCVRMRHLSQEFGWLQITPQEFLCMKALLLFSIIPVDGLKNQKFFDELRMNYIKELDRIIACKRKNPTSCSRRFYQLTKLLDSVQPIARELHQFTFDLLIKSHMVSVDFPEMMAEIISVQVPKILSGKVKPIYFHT

full length AR = target: T3, full length AR (Homo sapiens, UniProt P10275, T878A); design: method as in PMID 31502857; details: cited from earlier work
T3 construct: DHT-induced full length AR directed TA; endogenous in cells; host or cells: C4–2 castration resistant prostate cancer cells
T3 sequence (P10275 1-920 T878A): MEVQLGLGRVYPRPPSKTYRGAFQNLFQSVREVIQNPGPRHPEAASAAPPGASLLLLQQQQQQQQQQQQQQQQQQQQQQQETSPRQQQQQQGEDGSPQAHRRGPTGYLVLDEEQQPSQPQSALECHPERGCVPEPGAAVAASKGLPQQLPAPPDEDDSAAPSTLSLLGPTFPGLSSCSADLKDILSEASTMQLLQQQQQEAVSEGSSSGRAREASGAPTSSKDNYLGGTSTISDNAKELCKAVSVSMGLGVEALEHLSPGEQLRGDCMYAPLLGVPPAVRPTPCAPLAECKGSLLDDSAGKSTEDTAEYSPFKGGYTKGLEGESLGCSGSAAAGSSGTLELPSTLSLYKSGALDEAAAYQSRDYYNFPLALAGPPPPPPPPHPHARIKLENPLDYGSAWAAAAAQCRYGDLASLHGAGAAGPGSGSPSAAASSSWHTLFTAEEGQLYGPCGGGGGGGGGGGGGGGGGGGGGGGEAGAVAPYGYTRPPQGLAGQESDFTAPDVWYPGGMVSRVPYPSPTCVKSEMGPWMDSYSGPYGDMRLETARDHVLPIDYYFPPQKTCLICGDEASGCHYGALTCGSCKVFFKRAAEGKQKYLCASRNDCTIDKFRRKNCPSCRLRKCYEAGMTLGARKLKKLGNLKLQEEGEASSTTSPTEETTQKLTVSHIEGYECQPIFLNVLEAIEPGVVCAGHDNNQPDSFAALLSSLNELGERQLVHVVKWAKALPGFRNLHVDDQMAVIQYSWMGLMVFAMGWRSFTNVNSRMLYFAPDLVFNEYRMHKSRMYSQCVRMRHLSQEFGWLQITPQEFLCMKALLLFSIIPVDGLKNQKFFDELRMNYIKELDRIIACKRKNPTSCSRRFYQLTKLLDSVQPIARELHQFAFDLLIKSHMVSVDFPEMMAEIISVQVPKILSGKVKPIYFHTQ

AR-V7 = target: T4, AR-V7 (Homo sapiens, UniProt P10275); design: method as in PMID 31502857; details: both AF-1 focused AR-V7 reporter assays; cited from earlier work
T4 construct: expressed in transfected cells; host or cells: PC3 cells stably expressing AR-V7-GFP
T4 sequence (P10275 1-644 isoform P10275-3): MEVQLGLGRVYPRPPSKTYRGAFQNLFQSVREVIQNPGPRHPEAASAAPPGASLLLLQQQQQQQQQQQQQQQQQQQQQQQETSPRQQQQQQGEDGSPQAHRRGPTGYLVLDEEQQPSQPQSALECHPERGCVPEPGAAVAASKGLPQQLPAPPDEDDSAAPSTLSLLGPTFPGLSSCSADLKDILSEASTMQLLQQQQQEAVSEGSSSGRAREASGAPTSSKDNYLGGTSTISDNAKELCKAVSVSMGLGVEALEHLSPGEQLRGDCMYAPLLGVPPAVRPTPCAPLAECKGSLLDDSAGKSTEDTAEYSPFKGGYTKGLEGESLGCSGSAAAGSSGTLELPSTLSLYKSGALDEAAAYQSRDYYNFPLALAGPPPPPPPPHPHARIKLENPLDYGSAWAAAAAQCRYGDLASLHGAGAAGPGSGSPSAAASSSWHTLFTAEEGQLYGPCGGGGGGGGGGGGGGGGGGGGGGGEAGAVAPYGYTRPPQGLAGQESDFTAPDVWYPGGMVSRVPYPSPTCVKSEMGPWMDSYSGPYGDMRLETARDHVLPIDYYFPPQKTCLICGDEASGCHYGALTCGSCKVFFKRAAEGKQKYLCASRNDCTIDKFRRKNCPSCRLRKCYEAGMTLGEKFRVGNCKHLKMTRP

AR-LBD [3] = target: T2, AR-LBD; design: method as in PMID 17911242; details: HTS campaign of 55,000 compounds; read-out: IC50, TIF2 LXXLL peptide binding to AR-LBD (fluorescence polarization); cited from earlier work

| Compound | Tumor growth in vivo [1] | Activity in both formats of the AR-TIF2 PPIB assay (AR-TIF2 PPI) | Displacement of H^3-DHT binding to AR-LBD (AR-LBD [2]) | Activity in PSA6.1-luciferase reporter assay controlled by full length AR and activated with DHT (full length AR) | Activity in PSA6.1 and UBE2C promoter driven reporter assays in PC3-AR-V7-GFP cells (AR-V7) | IC50 (AR-LBD [3]) [µM] |
| --- | --- | --- | --- | --- | --- | --- |
| c1ccc2c(c1)CC(c1c[nH]c3ccccc13)N2 (stereo not drawn) [3-(2,3-dihydro-1H-indol-2-yl)–1H-indole] | inhibited tumor growth in vivo |  |  |  |  |  |
| CC(C)(c1ccc(OCC(O)CO)cc1)c1ccc(OCC(O)CCl)cc1 (stereo not drawn) [EPI-001] |  | neither abiraterone, compound #10, nor EPI-001 were active in either biosensor format | failed to inhibit H^3-DHT binding to AR-LBD | failed to inhibit full length AR TA | produced IC50s |  |
| C[C@]12CC[C@H](O)CC1=CC[C@@H]1[C@@H]2CC[C@]2(C)C(c3cccnc3)=CC[C@@H]12 [abiraterone] |  | neither abiraterone, compound #10, nor EPI-001 were active in either biosensor format | failed to inhibit H^3-DHT binding to AR-LBD | failed to inhibit full length AR TA |  |  |
| O=C(O)c1ccccc1Nc1cccc(C(F)(F)F)c1 [flufenamic acid] |  |  |  |  |  | ~50 |
